Common to all, as to type: binding
Holding throughout (details): Compound Concentration 10 µM

Assay [1] addresses T1, panel of 442 kinases (Homo sapiens, UniProt Q96Q40).
T1 construct: purchased KINOMEscan
An excerpt: (§1) We assessed the selectivity of members of this scaffold using the KINOMEscan methodology across a near comprehensive panel of 442 kinases [[18,27]].

The target in assay [2] is T2, panel of 442 kinases (Homo sapiens, UniProt Q96L34).
T2 construct: purchased KINOMEscan
T2 sequence (Q96L34 1-752): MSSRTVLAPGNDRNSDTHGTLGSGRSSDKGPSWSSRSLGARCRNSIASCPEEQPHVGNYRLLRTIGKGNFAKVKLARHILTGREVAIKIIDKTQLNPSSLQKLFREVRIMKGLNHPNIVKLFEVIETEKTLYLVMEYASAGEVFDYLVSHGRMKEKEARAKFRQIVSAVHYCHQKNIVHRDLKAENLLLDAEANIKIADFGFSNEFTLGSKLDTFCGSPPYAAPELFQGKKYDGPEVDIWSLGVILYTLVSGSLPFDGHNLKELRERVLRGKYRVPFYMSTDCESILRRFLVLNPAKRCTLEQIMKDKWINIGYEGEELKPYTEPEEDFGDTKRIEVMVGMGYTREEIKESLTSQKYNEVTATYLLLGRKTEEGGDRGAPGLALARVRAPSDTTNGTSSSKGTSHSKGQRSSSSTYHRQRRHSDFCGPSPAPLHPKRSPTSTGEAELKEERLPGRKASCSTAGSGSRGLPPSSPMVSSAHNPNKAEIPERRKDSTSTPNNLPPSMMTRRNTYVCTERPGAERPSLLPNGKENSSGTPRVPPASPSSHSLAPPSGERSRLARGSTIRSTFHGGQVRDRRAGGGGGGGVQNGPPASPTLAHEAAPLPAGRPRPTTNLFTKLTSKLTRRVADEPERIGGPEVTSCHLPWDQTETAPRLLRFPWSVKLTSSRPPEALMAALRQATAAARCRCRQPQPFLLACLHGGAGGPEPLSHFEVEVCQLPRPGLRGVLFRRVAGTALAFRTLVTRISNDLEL
Description: as §1

For assay [3], the target named is T3, panel of 442 kinases (Homo sapiens, UniProt P31152).
T3 construct: purchased KINOMEscan
T3 sequence (P31152 whole entry): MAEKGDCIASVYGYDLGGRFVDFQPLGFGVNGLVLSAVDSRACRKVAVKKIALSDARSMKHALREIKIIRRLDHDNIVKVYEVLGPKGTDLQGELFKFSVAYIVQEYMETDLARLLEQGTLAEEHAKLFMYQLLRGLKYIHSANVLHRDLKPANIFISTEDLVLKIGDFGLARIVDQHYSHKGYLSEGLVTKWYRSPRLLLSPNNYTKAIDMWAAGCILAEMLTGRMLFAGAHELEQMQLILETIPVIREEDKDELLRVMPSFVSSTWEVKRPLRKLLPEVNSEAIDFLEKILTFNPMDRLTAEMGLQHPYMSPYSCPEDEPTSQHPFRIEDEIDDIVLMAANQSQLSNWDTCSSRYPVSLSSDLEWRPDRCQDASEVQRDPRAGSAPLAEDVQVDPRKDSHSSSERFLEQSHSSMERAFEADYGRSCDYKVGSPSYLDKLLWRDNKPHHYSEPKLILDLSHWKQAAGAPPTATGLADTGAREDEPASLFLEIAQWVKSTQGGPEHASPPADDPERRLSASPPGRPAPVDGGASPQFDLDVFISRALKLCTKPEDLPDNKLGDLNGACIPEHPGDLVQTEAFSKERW
Description: as §1

SMILES strings stand for the structures.

T1 sequence (Q96Q40 whole entry): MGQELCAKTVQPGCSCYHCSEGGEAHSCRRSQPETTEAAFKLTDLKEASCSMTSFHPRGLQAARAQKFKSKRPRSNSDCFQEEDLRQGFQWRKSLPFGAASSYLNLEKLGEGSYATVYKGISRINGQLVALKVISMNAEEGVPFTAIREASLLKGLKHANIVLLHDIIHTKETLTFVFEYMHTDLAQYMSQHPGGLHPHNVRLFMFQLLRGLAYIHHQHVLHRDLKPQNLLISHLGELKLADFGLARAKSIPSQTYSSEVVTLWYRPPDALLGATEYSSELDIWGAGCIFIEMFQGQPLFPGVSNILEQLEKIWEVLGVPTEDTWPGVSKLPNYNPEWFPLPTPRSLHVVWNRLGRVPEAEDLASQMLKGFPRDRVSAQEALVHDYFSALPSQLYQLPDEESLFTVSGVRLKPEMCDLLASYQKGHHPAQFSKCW

For the molecule `CCOc1cc(C(=O)N2CCC(N3CCN(C)CC3)CC2)ccc1Nc1ncc2c(n1)N(C1CCCC1)c1ccccc1C(=O)N2C` [Compound 26], the “KINOMEscan: PFTAIRE2” value on panel of 442 kinases [1] amounted to 100. Also, the “KINOMEscan: MARK4” value at panel of 442 kinases [2] is 100. At panel of 442 kinases [3], the “KINOMEscan: ERK4” value is 100.
In the case of `COc1cc(C(=O)N2CCC(N3CCN(C)CC3)CC2)ccc1Nc1ncc2c(n1)N1CCc3cccc(c31)C(=O)N2C` [Compound 24], the “KINOMEscan: MARK4” value at panel of 442 kinases [2] came to 87.
For the molecule `COc1cc(C(=O)N2CCC(N3CCN(C)CC3)CC2)ccc1Nc1ncc2c(n1)N(C)c1ccccc1C(=O)N2C` [15 (LRRK2-IN-1)], at panel of 442 kinases [1], the “KINOMEscan: PFTAIRE2” value came to 100. Besides, on panel of 442 kinases [2], the “KINOMEscan: MARK4” value was 78. For the same molecule, the “KINOMEscan: ERK4” value on panel of 442 kinases [3] was found to be 100.
For the molecule `COc1cc(C(=O)N2CCC(N3CCN(C)CC3)CC2)ccc1Nc1ncc2c(n1)N(C1CCCC1)c1ccccc1C(=O)N2C` [Compound 25, 11-cyclopentyl-2-((2-methoxy-4-(4-(4-methylpiperazin-1-yl)piperidine-1-carbonyl)phenyl)amino)-5-methyl-5H-benzo[e]pyrimido[5,4-b][1,4]diazepin-6(11H)-one], the “KINOMEscan: PFTAIRE2” value on panel of 442 kinases [1] is 99. The “KINOMEscan: MARK4” value at panel of 442 kinases [2] was 100. For the same molecule, the “KINOMEscan: ERK4” value at panel of 442 kinases [3] is reported as 100.

The values above are taken from paper PMC3914206.
